According to patent US20100168112A1, “2-Substituted and 4-substituted aryl nitrone compounds” (RENOVIS, INC., priority 2004, published 2010):

Key:
[1] = Pharmacokinetic evaluation following intravenous and oral administration in rats; format: in vivo; conditions: male, Sprague-Dawley; for Cmax / Tmax / bioavailability: 5 mg/kg; for Cmax: rat plasma; for Cmax / Tmax: oral gavage, 2 mg/mL at 2.5 mL/kg; for clearance / Vd / Tmax / bioavailability / half-life: plasma, rat; for clearance / Vd / half-life: 1 mg/kg; for clearance / Vd: intravenous administration, 1 mg/mL at 1.0 mL/kg; for clearance: read-out: CI (clearance) (converted); for Vd: read-out: Vd (volume of distribution); for bioavailability: po 2 mg/mL at 2.5 mL/kg vs iv 1 mg/mL at 1.0 mL/kg, dose-normalized, read-out: F (%) oral bioavailability; for half-life: intravenous, read-out: T1/2 elimination half life (converted)
Method in brief: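 Male Sprague-Dawley rats, fasted, dosed iv (1 mg/mL formulation, 1.0 mL/kg, jugular or tail vein) or by oral gavage (2 mg/mL suspension, 2.5 mL/kg). Plasma sampled from 2 min to 480 min, some to 24 h, and quantified by LC-MS/MS (MRM). Parameters from noncompartmental analysis.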

CCI rats = assay: Mechanical allodynia in mononeuropathic pain model (chronic constrictive injury, CCI, Bennett model); format: in vivo, SD rats; conditions: for PWT ipsilateral hind paw (von Frey): 50 mg/kg p.o. single dose, mean ± SEM; for anti-allodynic effect on ipsilateral hind paw vs vehicle (in words): single dose 50 mg/kg, p.o.
Description: Adult male SD rats weighing 250-300 gm (Charles River Laboratories, San Diego, Calif.) were used. The animal room was lighted artificially at a 12-hr light-dark cycle (7:00 A.M. to 7:00 P.M) with water and food supply ad libitum. Animals were allocated randomly into groups. Seven days before establishing the mononeuropathic pain disease model, rats were trained on a metal mesh floor, covered with a plastic box (10×10×18 cm) 1-2 hr per day to habituate. During the habituating phase, non-painful tactile stimulation on the plantar surface of each hind paw was induced by a set of calibrated von Frey filaments, through the mesh floor, as described in example 2.
Following the 7-day training phase, the animals were anesthetized by i.p. injection of sodium pentobarbital (65 mg/kg, Abbott Lab, Chicago, Ill.). Under aseptic procedures, the skin of the left thigh was cut open for ˜2 cm. Mid-thigh level of the common sciatic nerve was exposed after blunt separation of the muscles. Two 4-0 silk and one 4-0 chromic gut sutures (both from Ethicon, Somerville, N.J.) were loosely ligated around the nerve, with a 1-1.5 mm interval between each of them. Skin wound was then close with wound clips. The right side (i.e., the contralateral side) was not surgically injured. After recovery from surgery, rats showing post-surgery neurological deficits or poor grooming were excluded from the experiments. This surgical procedure (i.e., chronic constrictive injury, CCI, or Bennett model) to establish mononeuropathic pain disease model has been described elsewhere (Bennett, G. J. and Xie, Y. K.: A peripheral mononeuropathy in rat that produces disorders of pain sensation like those seen in man. Pain, 33: 87-107, 1988).
On days 1, 3, 4, 7, 9, 11, and 14 after surgery, animals were tested for mechanical allodynia with von Frey filaments as described previously. On or around post-surgical day 14, the ipsilateral hind paw, felt to 5 grams, an indication of allodynia began to manifest mechanical allodynia (i.e., amplified response to non-painful tactile stimulation by von Frey filaments). The contralateral hind paws remained above the 5-gram level (i.e., no allodynia).
After manifestation of this allodynia, Compound 62 (50 mg/kg, p.o.), Compound 63 (50 mg/kg, p.o.), Compound 66 (50 mg/kg, p.o.), Compound 23 (50 mg/kg, p.o.), 4-hydroxy-tempol (TEMPOL, 50 mg/kg, p.o.), or piroxicam (a COX1 inhibitor, 50 mg/kg, p.o.) were administered to randomly-assigned animals. Changes of mechanical allodynia in the ipsilateral hind paw were recorded at several time points over the course of up to 24 hr.

[2] = post-dosing time −15 min (pre-dose)

Compound | Cmax [1] [ng/mL] | clearance [1] [mL/min/kg] | Vd [1] [L/kg] | Tmax [1] [min] | bioavailability [1] [%] | half-life [1] [min] | PWT ipsilateral hind paw (von Frey) (CCI rats; post-dosing time 30 min) [gm] | PWT ipsilateral hind paw (von Frey) (CCI rats; post-dosing time 60 min) [gm] | PWT ipsilateral hind paw (von Frey) (CCI rats; post-dosing time 300 min) [gm] | PWT ipsilateral hind paw (von Frey) (CCI rats; post-dosing time 1440 min) [gm] | PWT ipsilateral hind paw (von Frey) (CCI rats; [2]) [gm] | anti-allodynic effect on ipsilateral hind paw vs vehicle (in words) (CCI rats) | PWT ipsilateral hind paw (von Frey) (CCI rats; post-dosing time 5 min) [gm] | PWT ipsilateral hind paw (von Frey) (CCI rats; post-dosing time 120 min) [gm] | PWT ipsilateral hind paw (von Frey) (CCI rats; post-dosing time 240 min) [gm] | PWT ipsilateral hind paw (von Frey) (CCI rats; post-dosing time 360 min) [gm]
CC(C)(C)/[N+]([O-])=C/c1ccccc1S(C)(=O)=O [Compound 66, N-tert-Butyl-C-(2-methanesulfonylphenyl)nitrone] | 4730 | 3 | 0.63 | 60 | 70.3 | 143 | 5.33 ± 0.42 | 4.12 ± 0.91 | 5.33 ± 1.12 | 1.57 ± 0.23 | 1.97 ± 0.84 | no significant anti-allodynic effect |  |  |  | 
CC(C)(C)/[N+]([O-])=C/c1ccc(S(C)(=O)=O)cc1 [Compound 62, N-tert-Butyl-C-[4-(methanesulfonyl)phenyl]nitrone] | 4630 | 1 | 0.53 | 24.6 | 63.4 | 349 |  |  |  | 3.43 ± 1.02 | 3.17 ± 1.10 | rapid onset but short-lasting anti-allodynic effect | 2.86 ± 0.94 | 16.71 ± 3.44 | 15.14 ± 3.90 | 5.46 ± 1.46
CC(C)(C)/[N+]([O-])=C/c1ccc(S(=O)(=O)N2CCOCC2)cc1 [Compound 23, N-(tert-Butyl)-C-[4-(morpholine-4-sulfonyl)phenyl]nitrone] | 1120 | 28 | 3.78 | 25.2 | 65.3 | 94.8 | 7.67 ± 0.80 | 8.17 ± 1.52 | 4.43 ± 1.35 | 4.67 ± 0.84 | 2.43 ± 0.54 | statistically significant anti-allodynic effects |  |  |  | 
CC(C)(C)/[N+]([O-])=C/c1ccc(S(=O)(=O)Nc2cccnc2)cc1 [Compound 26, N-(tert-Butyl)-C-[4-(pyridin-3-ylsulfamoyl)phenyl]nitrone] | 27300 | 0.167 | 0.09 | 25.2 | 43.4 | 262 |  |  |  |  |  |  |  |  |  | 
CC(C)(C)/[N+]([O-])=C/c1ccc(S(N)(=O)=O)cc1 [Compound 20, N-(tert-Butyl)-C-[4-(sulfamoyl)phenyl]nitrone] | 796 | 12.8 | 4.08 | 22.2 | 55.4 | 220 |  |  |  |  |  |  |  |  |  | 
CCS(=O)(=O)c1ccc(/C=[N+](\[O-])C(C)(C)C)c(S(=O)(=O)CC)c1 [Compound 64, N-tert-Butyl-C-(2,4-bis-ethanesulfonylphenyl)nitrone] | 2490 | 13.8 | 0.67 | 39.6 | 91.3 | 33 |  |  |  |  |  |  |  |  |  | 
CC(C)(C)/[N+]([O-])=C/c1ccc(S(C)(=O)=O)cc1S(C)(=O)=O [Compound 63, N-tert-Butyl-C-(2,4-bis-methanesulfonylphenyl)nitrone] | 4130 | 3.17 | 0.45 | 45 | 95.9 | 99.6 | 18.4 ± 10.42 | 18.8 ± 11.29 | 5.20 ± 1.63 | 3.60 ± 1.30 | 3.88 ± 0.97 | produced anti-allodynic effects on ipsilateral hind paws |  |  |  | 
